Assay results as given in US8148391B2 (Cephalon, Inc., priority 2006, dated 2012).

molecular target: T1, baculovirus-expressed ALK (Homo sapiens, UniProt Q9UM73); experiment: ALK Kinase Assay (ELISA-type, time-resolved fluorescence); type: biochemical; settings: 1 μM ATP (Km level), 30 ng/ml ALK, 37° C., 15 minutes; read-out: ALK Activity (ALK kinase inhibition, IC50 class)
T1 construct: host or cells: baculovirus expression system
Description: Briefly, each 96-well plate was coated with 100 μL/well of 10 μg/mL substrate (phospholipase C-γ) in Tris-buffered saline (TBS). […] The reaction was initiated by adding enzyme (30 ng/ml ALK) and was allowed to proceed at 37° C. for 15 minutes. Detection of the phosphorylated product was performed by adding 100 μl/well of Eu-N1 labeled PT66 antibody (Perkin Elmer # AD0041).
Data analysis was performed using ActivityBase (IDBS, Guilford, UK). IC50 values were calculated by plotting percent inhibition versus log10 of the concentration of compound and fitting to the nonlinear regression sigmoidal dose-response (variable slope) equation in XLFit (IDBS, Guilford, UK).

T1 sequence (Q9UM73 19-1620): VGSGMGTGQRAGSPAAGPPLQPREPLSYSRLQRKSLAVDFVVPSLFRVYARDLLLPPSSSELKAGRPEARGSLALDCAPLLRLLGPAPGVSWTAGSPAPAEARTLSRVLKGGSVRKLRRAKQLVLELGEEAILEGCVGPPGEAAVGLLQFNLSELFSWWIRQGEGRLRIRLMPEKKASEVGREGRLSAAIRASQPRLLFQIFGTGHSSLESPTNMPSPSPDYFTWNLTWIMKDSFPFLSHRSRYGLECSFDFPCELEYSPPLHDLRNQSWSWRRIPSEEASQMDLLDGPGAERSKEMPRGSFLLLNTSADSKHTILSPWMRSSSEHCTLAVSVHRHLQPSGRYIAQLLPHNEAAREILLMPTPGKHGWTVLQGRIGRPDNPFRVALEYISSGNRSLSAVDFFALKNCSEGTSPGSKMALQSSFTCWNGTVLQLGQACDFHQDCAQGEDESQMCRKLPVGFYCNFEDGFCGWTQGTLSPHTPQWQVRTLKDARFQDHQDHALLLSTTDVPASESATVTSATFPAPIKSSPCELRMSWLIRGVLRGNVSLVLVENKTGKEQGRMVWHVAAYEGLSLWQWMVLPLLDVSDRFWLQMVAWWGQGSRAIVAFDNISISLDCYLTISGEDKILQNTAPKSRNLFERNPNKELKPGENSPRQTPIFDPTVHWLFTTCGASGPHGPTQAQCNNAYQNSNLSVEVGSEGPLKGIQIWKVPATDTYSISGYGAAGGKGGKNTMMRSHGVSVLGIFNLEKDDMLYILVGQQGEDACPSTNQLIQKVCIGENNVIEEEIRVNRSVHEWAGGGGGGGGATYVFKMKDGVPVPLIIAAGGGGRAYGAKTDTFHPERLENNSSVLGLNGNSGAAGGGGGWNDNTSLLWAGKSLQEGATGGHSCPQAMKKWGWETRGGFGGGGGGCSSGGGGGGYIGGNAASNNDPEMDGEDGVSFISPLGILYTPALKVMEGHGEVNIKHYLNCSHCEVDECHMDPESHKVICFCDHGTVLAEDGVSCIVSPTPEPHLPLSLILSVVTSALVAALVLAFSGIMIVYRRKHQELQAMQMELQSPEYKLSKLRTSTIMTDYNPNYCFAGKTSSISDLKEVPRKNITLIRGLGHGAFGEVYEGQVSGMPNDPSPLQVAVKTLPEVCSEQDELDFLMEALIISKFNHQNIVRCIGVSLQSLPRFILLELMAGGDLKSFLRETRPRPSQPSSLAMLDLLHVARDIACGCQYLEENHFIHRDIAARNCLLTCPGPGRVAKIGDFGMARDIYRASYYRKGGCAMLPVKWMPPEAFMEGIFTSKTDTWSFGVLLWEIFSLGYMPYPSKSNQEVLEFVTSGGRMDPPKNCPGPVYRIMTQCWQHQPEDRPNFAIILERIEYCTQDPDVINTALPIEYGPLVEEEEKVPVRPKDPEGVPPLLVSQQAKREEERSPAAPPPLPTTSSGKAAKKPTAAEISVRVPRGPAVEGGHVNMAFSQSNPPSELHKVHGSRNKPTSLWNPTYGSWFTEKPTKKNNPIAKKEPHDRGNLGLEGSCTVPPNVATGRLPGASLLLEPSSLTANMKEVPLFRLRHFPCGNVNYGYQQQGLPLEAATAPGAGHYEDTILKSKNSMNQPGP

Row | SMILES | IC50 [nM]
1 | CNC(=O)c1cccc(F)c1Nc1nc(Nc2ccc3c(c2)NC(=O)C(NC(C)=O)CC3(C)C)ncc1Cl (stereo not drawn) [Example 1289, 2-[2-(3-Acetylamino-5,5-dimethyl-2-oxo-2,3,4,5-tetrahydro-1H-1-benzazepin-8-ylamino)-5-chloro-pyrimidin-4-ylamino]-3-fluoro-N-methyl-benzamide] | 100 to 1000
2 | CNC(=O)c1cccc(F)c1Nc1nc(Nc2ccc3c(c2)NC(=O)C(NC(=O)COC)CC3(C)C)ncc1Cl (stereo not drawn) [Example 1292, 2-{5-Chloro-2-[3-(2-methoxy-acetylamino)-5,5-dimethyl-2-oxo-2,3,4,5-tetrahydro-1H-1-benzazepin-8-ylamino]-pyrimidin-4-ylamino}-3-fluoro-N-methyl-benzamide] | 100 to 1000

The remaining lines, values ahead:

Row | IC50 [nM] | SMILES
3 | 100 to 1000 | CCOC(=O)N1CCCOc2cc(Nc3ncc(Cl)c(Nc4c(F)cccc4C(=O)NC)n3)ccc21 [Example 1417, 3-[5-Chloro-4-(2-fluoro-6-methylcarbamoyl-phenylamino)-pyrimidin-2-ylamino]-7,8-dihydro-6H-5-oxa-9-aza-benzocycloheptene-9-carboxylic acid ethyl ester]
4 | 100 to 1000 | CNC(=O)c1cccc(F)c1Nc1nc(Nc2ccc3c(c2)NC(=O)CCC3)ncc1Cl [Example 1375, 2-[5-Chloro-2-(2-oxo-2,3,4,5-tetrahydro-1H-benzo[b]azepin-8-ylamino)-pyrimidin-4-ylamino]-3-fluoro-N-methyl-benzamide]
5 | < 100 | C#CCN(C)C(=O)c1ccccc1Nc1nc(Nc2ccc3c(c2)CCCC(=O)N3C)ncc1Cl [Example 1390, [5-Chloro-2-(1-methyl-2-oxo-2,3,4,5-tetrahydro-1H-benzo[b]azepin-7-ylamino)-pyrimidin-4-ylamino]-N-methyl-N-prop-2-ynyl-benzamide]
6 | < 100 | C#CCNC(=O)c1ccccc1Nc1nc(Nc2ccc3c(c2)CCCC(=O)N3C)ncc1Cl [Example 1388, 2-[5-Chloro-2-(1-methyl-2-oxo-2,3,4,5-tetrahydro-1H-benzo[b]azepin-7-ylamino)-pyrimidin-4-ylamino]-N-prop-2-ynyl-benzamide]

same assay, conditions: ALK kinase inhibition, 1 μM ATP (Km level); read-out: ALK Activity

Row | IC50 [nM] | SMILES
7 | < 100 | CNC(=O)c1ccccc1Nc1nc(Nc2ccc3c(c2)C(C)(C)CCC(=O)N3)ncc1Cl [Example 381, 2-[5-Chloro-2-(5,5-dimethyl-2-oxo-2,3,4,5-tetrahydro-1H-benzo[b]azepin-7-ylamino)-pyrimidin-4-ylamino]-N-methyl-benzamide]
8 | 100 to 1000 | CNC(=O)c1cccc(C)c1Nc1nc(Nc2ccc3c(c2)C(C)(C)CCC(=O)N3)ncc1Cl [Example 399, 2-[5-Chloro-2-(5,5-dimethyl-2-oxo-2,3,4,5-tetrahydro-1H-benzo[b]azepin-7-ylamino)-pyrimidin-4-ylamino]-3,N-dimethyl-benzamide]
9 | 100 to 1000 | CNC(=O)c1cccc(Cl)c1Nc1nc(Nc2ccc3c(c2)CCN(CCOC)CC3)ncc1Cl [Example 312, 3-Chloro-2-{5-chloro-2-[3-(2-methoxy-ethyl)-2,3,4,5-tetrahydro-1H-benzo[d]azepin-7-ylamino]-pyrimidine-4-ylamino}-N-methyl-benzamide]
10 | < 100 | CNC(=O)c1cccc(F)c1Nc1nc(Nc2ccc3c(c2)N(CCOC)C(=O)CCC3)ncc1Cl [Example 362, 2-{5-Chloro-2-[1-(2-methoxy-ethyl)-2-oxo-2,3,4,5-tetrahydro-1H-benzo[b]azepin-8-ylamino]-pyrimidin-4-ylamino}-3-fluoro-N-methyl-benzamide]

same assay, conditions: ALK kinase inhibition, 1 μM ATP; read-out: ALK Activity

Row | IC50 [nM] | SMILES
11 | < 100 | CCN1CCCOc2cc(Nc3ncc(Cl)c(Nc4c(F)cccc4C(=O)NC)n3)ccc21 [Example 1692, 2-[5-Chloro-2-(9-ethyl-6,7,8,9-tetrahydro-5-oxa-9-aza-benzocyclohepten-3-ylamino)-pyrimidin-4-ylamino]-3-fluoro-N-methyl-benzamide]
12 | < 100 | CNC(=O)c1cccc(F)c1Nc1nc(Nc2ccc3c(c2)N(CCOC)C(=O)CCC3(C)C)ncc1Cl [Example 1581, 2-{5-Chloro-2-[1-(2-methoxy-ethyl)-5,5-dimethyl-2-oxo-2,3,4,5-tetrahydro-1H-benzo[b]azepin-8-ylamino]-pyrimidin-4-ylamino}-3-fluoro-N-methyl-benzamide]
